Measured values: patent publication EP3463364B1, “PYRAZINE DERIVATIVES FOR USE IN THE TREATMENT OF DISEASES ASSOCIATED WITH CELL CYCLE DYSREGULATION” (University of Patras, priority 2016, dated 2017)

Target: T1, Geminin-miniCdt1 protein interaction (Homo sapiens, UniProt O75496+Q9H211)
T1 construct: corresponds to the amino acid region 158-396 of the human Cdtl protein; Concentrations series of the full-length Geminin and the synthetic chemical compound were simultaneously injected
T1 sequence (Q9H211 158-396): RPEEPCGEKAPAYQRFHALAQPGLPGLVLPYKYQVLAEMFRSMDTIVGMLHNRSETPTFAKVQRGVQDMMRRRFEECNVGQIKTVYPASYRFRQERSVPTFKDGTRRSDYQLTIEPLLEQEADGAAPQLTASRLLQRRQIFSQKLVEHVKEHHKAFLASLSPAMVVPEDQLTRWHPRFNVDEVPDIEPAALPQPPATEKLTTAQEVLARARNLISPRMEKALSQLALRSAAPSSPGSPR
T1 sequence (O75496 1-209): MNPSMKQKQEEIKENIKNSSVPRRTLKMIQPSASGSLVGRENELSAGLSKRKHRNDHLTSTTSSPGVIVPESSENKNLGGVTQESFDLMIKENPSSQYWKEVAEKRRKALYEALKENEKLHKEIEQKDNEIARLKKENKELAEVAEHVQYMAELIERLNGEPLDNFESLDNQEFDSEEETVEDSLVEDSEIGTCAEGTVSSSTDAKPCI
Test: Surface plasmon resonance (SPR): inhibition of Geminin binding to immobilized miniCdt1
Procedure: Surface plasmon resonance analysis was performed in order to determine in a quantitative manner the ability of the synthetic compound AF-615/30368009 (compound number 1 in Tables A and B, and Fig. 1) to inhibit the binding of Geminin to the protein miniCdt1 (which corresponds to the amino acid region 158-396 of the human Cdtl protein), by calculating the inhibition constant (KI).
Surface plasmon resonance spectroscopy (SPR) was performed at 25°C, using a Biosensor Biacore instrument (Biacore T100). About 6,000 RU of miniCdt1 protein were immobilized on a CMS Chip (Biacore) at pH 5.5, using amino coupling of Lysine residues. Concentrations series of the full-length Geminin and the synthetic chemical compound were simultaneously injected across the chip in a buffer containing 20 mM Hepes pH 7.5, 200 mM NaCl, 0.01% Tween 20 at a flow rate of 30µl/min. The concentrations used were 12, 36, 107, 322, 966nM for Geminin and 10 µM, 100µM, 1000µM for the compound. The injection of samples was carried out in the presence of 20% DMSO, to ensure high solubility.
In the graphs of Fig. 2, the x axis represents the different concentrations of Geminin (nM), while the y-axis the binding levels in RU (Response Units). […] The results in Fig. 2 indicate the specificity of the in vitro inhibitory effect of the synthetic chemical compound AF-615/30368009 on the Geminin-miniCdt1 protein interaction.

- Ki (SPR at 25°C, Geminin 12-966nM, compound 10-1000µM, 20% DMSO, estimated value, read-out: inhibition constant (KI)): 750 ± 190 µM
Compound: O=C(NNC(=S)N1CCOCC1)c1cnccn1 [AF-615/30368009, N'-(morpholine-4-carbothioyl)pyrazine-2-carbohydrazide]
- inhibition of Geminin binding to miniCdt1 (compound at 1000 µM, SPR binding curves (Fig. 2)): exhibits inhibition of Geminin binding to miniCdt1
